This note sets out measurements from PubChem BioAssay (NCI).

Some test systems named below: SNB-78 CNS; HOP-18 NSCLC; DMS 114 small cell lung; NCI-H460 lung; RPMI-8226 leukemia; M19-MEL melanoma; UACC-62 melanoma; DLD-1 colon; DU-145 prostate; NCI/ADR-RES ovarian; MDA-MB-435; CCRF-CEM leukemia; MDA-MB-231 breast; HL-60(TB) leukemia.
Common to all, as to assay: NCI-60 cell line screen, 48 h

Values joined by “and” are separate entries in the source; they are usually repeats but may differ in a detail not shown here. Equal entries are not always repeated.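 Interpolation was linear, between the two tested concentrations surrounding the appropriate level; five concentrations were tested over 48 hours in 96-well plates. Here, GI50 denotes the concentration required for 50% inhibition of growth. TGI: concentration producing complete growth inhibition.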

As to `COC(=O)C1=C(C(=O)OC)C2(OC(C)=O)c3ccccc3-c3ccccc3C12` (stereo not drawn), the TGI was determined as 10.8 µM with SNB-78 CNS; 9.5 µM with HOP-18 NSCLC; 9.89 µM with DMS 114 small cell lung; 32.8 µM in the experiment on NCI-H460 lung; 6.56 µM in the experiment with RPMI-8226 leukemia; 8.79 µM with M19-MEL melanoma. Besides, the results for the TGI with UACC-62 melanoma and in the experiment on DLD-1 colon were 24.4 µM and 3.28 µM, respectively.
As for `O=C1C(CN2CCCCC2)CCCC1CN1CCCCC1` (stereo not drawn), the TGI in the experiment with SNB-78 CNS was 47.6 µM and 44.8 µM; in the experiment with HOP-18 NSCLC it was 28.5 µM and 30.9 µM; in the experiment on DU-145 prostate, 32.2 µM; with NCI/ADR-RES ovarian it was 55.9 µM; with MDA-MB-435, 30.9 µM; in the experiment with CCRF-CEM leukemia it was 20.6 µM and > 22.6 µM. Also, the TGI with DMS 114 small cell lung was 18.7 µM and 79.4 µM; in the experiment on NCI-H460 lung, above 100 µM; in the experiment on MDA-MB-231 breast it was 34.7 µM; in the experiment with RPMI-8226 leukemia it was 13.1 µM; in the experiment on M19-MEL melanoma, > 57.1 µM and 36.7 µM; in the experiment on HL-60(TB) leukemia, 39.3 µM and > 63.1 µM. In addition, the TGI is above 67.9 µM with UACC-62 melanoma; 31.5 µM and 32 µM in the experiment on DLD-1 colon. Further, the GI50 in the experiment with DU-145 prostate was 0.059 µM; with CCRF-CEM leukemia it was 4.86 µM and 2.41 µM; in the experiment on DMS 114 small cell lung, 7.38 µM and 27.4 µM; in the experiment on NCI-H460 lung it was above 100 µM; in the experiment with M19-MEL melanoma it was > 43 µM and 19.8 µM; in the experiment with HL-60(TB) leukemia, 19 µM and 8.6 µM.
Turning to `CC(C)(C)c1nc2c(o1)C(=O)c1ccccc1C2=O`, the TGI is 39.1 µM in the experiment on SNB-78 CNS; 18.9 µM in the experiment with HOP-18 NSCLC; 2.57 µM in the experiment with DU-145 prostate; 1.76 µM with NCI/ADR-RES ovarian; 0.327 µM in the experiment on MDA-MB-435; above 29.5 µM in the experiment on CCRF-CEM leukemia. In addition, the TGI in the experiment on DMS 114 small cell lung came to 5.89 µM; with NCI-H460 lung, 8.19 µM; in the experiment with MDA-MB-231 breast, 1.97 µM; with RPMI-8226 leukemia, 16.8 µM; in the experiment on M19-MEL melanoma, 2.84 µM; in the experiment with HL-60(TB) leukemia it was 1.78 µM. The TGI came to 1.58 µM in the experiment on UACC-62 melanoma and 14.5 µM with DLD-1 colon.
On to `COc1ccc(C2C3C(=O)C=CC(=O)C3[C@@H]2C)cc1OC` (stereo partly drawn), for which the TGI in the experiment with SNB-78 CNS is above 100 µM; in the experiment with HOP-18 NSCLC it was above 100 µM; with DMS 114 small cell lung, above 100 µM; in the experiment on NCI-H460 lung, above 100 µM; with RPMI-8226 leukemia, 63.1 µM; with M19-MEL melanoma, above 100 µM. Also, the TGI in the experiment with UACC-62 melanoma and in the experiment with DLD-1 colon was above 100 µM in each case.
With `CC1=C2C(=O)[C@H]3[C@@H](CC=C4C[C@@H](O)CC[C@@]43C)[C@@H]2CC[C@]12O[C@@H]1C[C@H](C)CN[C@H]1[C@H]2C`, the TGI in the experiment on SNB-78 CNS is 39.8 µM; in the experiment with HOP-18 NSCLC, 31.3 µM; in the experiment on DU-145 prostate, above 100 µM; in the experiment with NCI/ADR-RES ovarian, above 100 µM; with MDA-MB-435, above 100 µM; in the experiment on CCRF-CEM leukemia, above 100 µM. Further, the TGI was 41.5 µM with DMS 114 small cell lung; above 65 µM with NCI-H460 lung; above 100 µM with MDA-MB-231 breast; above 100 µM in the experiment with RPMI-8226 leukemia; 85.3 µM with M19-MEL melanoma; above 65.5 µM in the experiment with HL-60(TB) leukemia. Moreover, the TGI in the experiment with UACC-62 melanoma was above 92.3 µM; in the experiment on DLD-1 colon, 97.1 µM.
As for `Clc1ccc(SCCSCCCCCCCCCCSCCSc2ccc(Cl)cc2)cc1`, the TGI in the experiment with SNB-78 CNS, in the experiment on HOP-18 NSCLC, in the experiment with CCRF-CEM leukemia, with DMS 114 small cell lung, in the experiment on NCI-H460 lung and in the experiment on RPMI-8226 leukemia was above 100 µM each time. In addition, the TGI with HL-60(TB) leukemia, in the experiment with UACC-62 melanoma and with DLD-1 colon was above 100 µM throughout.
`CSC(C1c2ccccc2N(C)C2=NC(=O)N(C)C(=O)C21Cl)S(=O)(=O)c1ccc(C)cc1` (stereo not drawn): the TGI was above 100 µM with SNB-78 CNS; above 100 µM with HOP-18 NSCLC; 28.3 µM with CCRF-CEM leukemia; above 100 µM in the experiment on DMS 114 small cell lung; above 100 µM in the experiment with NCI-H460 lung; 57.8 µM with RPMI-8226 leukemia. In addition, the TGI in the experiment with M19-MEL melanoma is above 100 µM; with HL-60(TB) leukemia, 39.7 µM; in the experiment on UACC-62 melanoma it was above 100 µM; with DLD-1 colon, above 100 µM.
